Reference: patent US6277859A, “Morphinan derivative and its pharmaceutical applications” (priority 1992, dated 2001)
Structures can show the parent of a compound that is named as a salt.

Legend:
κ receptor = molecular target: T1, κ receptor (Mus musculus, UniProt P33534); test: Ke with norBNI in isolated mouse vas deference preparation; format: cell-based, mouse (male ddy); settings: for Ke norBNI: norBNI (κ)
T1 construct: The isolated vas deference was filled with Krebes-Henseleit solution; from tissue; host or cells: isolated vas deferens of male ddy mouse
Experimental: (§1) A male ddy mouse was used in this test. The isolated vas deference was filled with Krebes-Henseleit solution (NaCl 118 mM; KCl 4.7 mM; CaCl2 2.5 mM; KH2 PO4 1.1 mM; NaHCO3 25 mM; and glucose 10 mM) warmed to 37° C. and suspended in a Magnus tube ventilated with 5% carbon dioxide and 95% oxygen. Electrical stimulus was performed at 0.1 Hz for 5.0 ms by means of ring-shaped platinum electrodes located above and below. Tissue contractions were recorded on a polygraph using an isometric transducer.
(§2) Then after adequately washing with nutrient solution and the contraction reaction stabilized, naloxone, a μ […], NTI, a δ […], or norBNI, a κ […], were added and the test compound was again cumulatively added after roughly 20 minutes. The Ke value was calculated using the following calculation formula from the difference in the efficacies of both agonists.
(§3) Ke=[Conc. of added agonist]/(IC50 ratio-1)
(§4) IC50 ratio IC50 in the presence of agonist/IC50 in the absence of agonist

μ receptor = molecular target: T2, μ receptor (Mus musculus, UniProt P42866); test: Ke with naloxone in isolated mouse vas deference preparation; format: cell-based, mouse (male ddy)
T2 construct: The isolated vas deference was filled with Krebes-Henseleit solution; from tissue; host or cells: isolated vas deferens of male ddy mouse
Experimental: as §1, §2, §3, §4

Wistar rats = test: Evaluation of diuretic action; format: in vivo, rat (male Wistar); settings: sc, rat, s.c., urine output for 5 h after 20 ml/kg saline oral; for ED200: read-out: ED200, diuretic action (dose giving urine output of 200, non-dosed group = 100)
Experimental: Evaluation of Diuretic Action
7-8 week old male Wistar rats were used in this test after prohibiting from drinking water for 1 hour before testing. After discharging any urine accumulated in the bladder by gently stimulating the lower abdomens of the animals, the drug was administered subcutaneously. After 30 minutes, the animals were then forcibly given 20 ml/kg of physiological saline orally. The animals were then placed in metabolic cages immediately after administration of the drug (2 animals/cage) and urine output for 5 hours after loading with physiological saline was measured. Drug efficacy was expressed in the form of those doses resulting in urine outputs of 200 and 500, respectively, when the urine output of a non-dosed group was taken to be 100. Those doses were expressed as the ED200 and ED500 values, respectively.

δ receptor = molecular target: T3, δ receptor (Mus musculus, UniProt P32300); test: Ke with NTI in isolated mouse vas deference preparation; format: cell-based, mouse (male ddy); settings: for Ke NTI: NTI (δ)
T3 construct: The isolated vas deference was filled with Krebes-Henseleit solution; from tissue; host or cells: isolated vas deferens of male ddy mouse
Experimental: as §1, §2, §3, §4

ddY mice = test: animal or person; format: in vivo, mouse (ddY); settings: mouse, s.c. 15 min before i.p. 0.6% acetic acid
Experimental: Analgesic Activity Test Using the Acetic Acid-induced Writhing Method
5 week old ddY mice were used in this test. After intraperitoneal administration of 0.1 ml of 0.6% aqueous acetic acid per 10 g of body weight, the number of writhing reactions that occurred in 10 minutes starting 10 minutes after administration was evaluated for the indicator. The test drug was administered subcutaneously into the backs of the animals 15 minutes before administration of acetic acid.

T1 sequence (P33534 whole entry): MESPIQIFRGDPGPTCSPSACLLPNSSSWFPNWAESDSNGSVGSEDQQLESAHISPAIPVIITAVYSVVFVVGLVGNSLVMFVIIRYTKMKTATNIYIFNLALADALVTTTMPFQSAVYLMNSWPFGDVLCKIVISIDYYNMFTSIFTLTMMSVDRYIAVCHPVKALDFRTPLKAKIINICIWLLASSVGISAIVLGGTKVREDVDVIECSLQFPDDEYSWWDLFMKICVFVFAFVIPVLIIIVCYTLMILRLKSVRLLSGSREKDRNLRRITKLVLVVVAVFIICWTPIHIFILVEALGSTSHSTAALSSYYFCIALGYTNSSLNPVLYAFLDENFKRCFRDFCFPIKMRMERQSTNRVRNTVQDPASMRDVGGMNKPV
T2 sequence (P42866 whole entry): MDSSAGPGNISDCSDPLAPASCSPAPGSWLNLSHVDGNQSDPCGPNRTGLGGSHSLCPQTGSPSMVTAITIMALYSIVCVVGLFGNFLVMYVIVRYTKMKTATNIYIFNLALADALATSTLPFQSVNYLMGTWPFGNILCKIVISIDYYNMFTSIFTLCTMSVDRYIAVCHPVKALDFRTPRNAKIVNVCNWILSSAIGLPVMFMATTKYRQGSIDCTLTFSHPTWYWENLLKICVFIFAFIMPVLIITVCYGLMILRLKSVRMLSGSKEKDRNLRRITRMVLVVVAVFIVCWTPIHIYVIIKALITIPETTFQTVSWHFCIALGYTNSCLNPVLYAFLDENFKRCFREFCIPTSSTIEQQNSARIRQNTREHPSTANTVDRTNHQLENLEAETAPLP
T3 sequence (P32300 whole entry): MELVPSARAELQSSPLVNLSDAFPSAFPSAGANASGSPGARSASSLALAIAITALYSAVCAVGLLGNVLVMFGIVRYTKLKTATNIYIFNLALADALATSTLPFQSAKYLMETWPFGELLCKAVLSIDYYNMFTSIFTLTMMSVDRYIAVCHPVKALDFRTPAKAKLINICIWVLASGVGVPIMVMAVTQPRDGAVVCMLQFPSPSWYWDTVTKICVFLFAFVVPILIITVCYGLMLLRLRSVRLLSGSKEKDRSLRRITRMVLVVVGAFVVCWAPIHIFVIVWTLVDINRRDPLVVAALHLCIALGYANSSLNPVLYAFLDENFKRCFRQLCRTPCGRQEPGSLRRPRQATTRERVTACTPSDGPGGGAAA

Structure (SMILES) | selective agonist for κ receptors (in words) (κ receptor) | Ke norBNI (κ receptor) | Ke Naloxone (μ receptor) | ED500 (Wistar rats; read-out: ED500, diuretic action (dose giving urine output of 500, non-dosed group = 100)) | ED200 (Wistar rats) | Ke NTI (δ receptor) | ED50, acetic acid writhing (ddY mice) | selective agonist for δ receptors (in words) (δ receptor)
CN(C(=O)OCc1ccccc1)[C@H]1CC[C@@]2(O)[C@H]3Cc4ccc(O)c5c4[C@@]2(CCN3CC2CC2)[C@H]1O5 [Compound 42, 17-cyclopropylmethyl-3,14β-dihydroxy-4,5α-epoxy-6α-(N-methylbenzyloxycarbamido)morphinan.tartrate] | selective agonists for κ receptors | 0.905 nM | 186 nM | 6.1 µg/kg | 0.85 µg/kg | 63.5 nM | 1.36 µg/kg | 
CN(C(=O)CSc1ccccc1)[C@H]1CC[C@@]2(O)[C@H]3Cc4ccc(O)c5c4[C@@]2(CCN3CC2CC2)[C@H]1O5 [Compound 45, 17-cyclopropylmethyl-4,5α-epoxy-3,14,β-dihydroxy-6α-(N-methylthiophenoxyacetamido)morphinan.tartrate] | selective agonists for κ receptors | 0.416 nM | 26.5 nM |  | 8.1 µg/kg | 135 nM | 3.8 µg/kg | 
CCCCOC(=O)N(C)[C@H]1CC[C@@]2(O)[C@H]3Cc4ccc(O)c5c4[C@@]2(CCN3CC2CC2)[C@H]1O5 [Compound 47, 17-cyclopropylmethyl-4,5α-epoxy-3,14β-dihydroxy-6α-(N-methylbutyroxycarbamido)morphinan.tartrate] | selective agonists for κ receptors | 0.140 nM | 63.5 nM |  | 1.6 µg/kg | 10.4 nM | 0.52 µg/kg | 
CN(C(=O)/C=C/c1cccc(F)c1)[C@H]1CC[C@@]2(O)[C@H]3Cc4ccc(O)c5c4[C@@]2(CCN3CC2CC2)[C@H]1O5 [Compound 96, 17-cyclopropylmethyl-3,14β-dihydroxy-4,5α-epoxy-6α-(N-methyl-3-fluorocinnamamido)morphinan.tartrate] |  | 4.21 nM | 32.5 nM |  | 1.3 µg/kg | 1.61 nM | 0.86 µg/kg | selective agonists for δ receptors
CN(C(=O)CC(=O)c1ccccc1)[C@H]1CC[C@@]2(O)[C@H]3Cc4ccc(O)c5c4[C@@]2(CCN3CC2CC2)[C@H]1O5 [Compound 98, 17-cyclopropylmethyl-3,14β-dihydroxy-4,5α-epoxy-6α-(N-methylbenzoylacetamido)morphinan.tartrate] | selective agonists for κ receptors | 1.35 nM |  |  | 6.5 µg/kg |  | 6.8 µg/kg | 
CN(C(=O)/C=C/c1ccccc1)[C@@H]1CC[C@@]2(O)[C@H]3Cc4ccc(O)c5c4[C@@]2(CCN3CC2CC2)[C@H]1O5 [Compound 99, 17-cyclopropylmethyl-3,14β-dihydroxy-4,5α-epoxy-6β-(N-methylcinnamamido)morphinan.hydrochloride] | selective agonists for κ receptors | 0.652 nM | 94.5 nM |  | 1.1 µg/kg |  | 1.8 µg/kg | 
CC(=O)Oc1ccc2c3c1O[C@H]1[C@H](N(C)C(=O)/C=C/c4ccccc4)CC[C@@]4(O)[C@@H](C2)N(CC2CC2)CC[C@]314 [Compound 140, 17-Cyclopropylmethyl-3-acetoxy-14β-hydroxy-4,5α-epoxy-6β-(N-methylcinnamamido)morphinan.tartrate] | selective agonists for κ receptors | 1.06 nM | 320 nM |  |  | 261 nM | 3.4 µg/kg | 
